Values joined by “and” are separate entries in the source; they are usually repeats but may differ in a detail not shown here. Equal values may be shown once.
Experiments:
HDAC1 = HDAC1 (Homo sapiens, UniProt Q13547); assay: In vitro HDAC isozyme selectivity screen: HDAC1; type: biochemical; conditions: for IC50: Table 2
HDAC2 = HDAC2 (Homo sapiens, UniProt Q92769); assay: In vitro HDAC isozyme selectivity screen: HDAC2; type: biochemical; conditions: for IC50: Table 2
HDAC4 = HDAC4 (Homo sapiens, UniProt P56524); assay: In vitro HDAC isozyme selectivity screen: HDAC4; type: biochemical; conditions: for IC50: Table 2
HDAC5 = HDAC5 (Homo sapiens, UniProt Q9UQL6); assay: In vitro HDAC isozyme selectivity screen: HDAC5; type: biochemical; conditions: for IC50: Table 2
HDAC8 = molecular target: T1, HDAC8 (Homo sapiens, UniProt Q9BY41); assay: In vitro HDAC isozyme selectivity screen: HDAC8; type: biochemical; conditions: for IC50: Table 2
T1 sequence (Q9BY41 1-377): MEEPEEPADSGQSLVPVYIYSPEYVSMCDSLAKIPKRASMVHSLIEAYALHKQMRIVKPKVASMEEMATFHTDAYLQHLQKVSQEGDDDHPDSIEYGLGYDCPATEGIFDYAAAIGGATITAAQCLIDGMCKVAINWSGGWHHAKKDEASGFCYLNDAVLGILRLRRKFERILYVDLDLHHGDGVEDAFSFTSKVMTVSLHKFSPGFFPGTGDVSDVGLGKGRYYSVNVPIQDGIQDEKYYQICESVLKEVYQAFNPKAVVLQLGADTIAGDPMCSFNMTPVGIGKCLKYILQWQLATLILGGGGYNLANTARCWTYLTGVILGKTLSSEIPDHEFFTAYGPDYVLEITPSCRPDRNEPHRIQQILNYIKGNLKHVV

HDAC9 = HDAC9 (Homo sapiens, UniProt Q9UKV0); assay: In vitro HDAC isozyme selectivity screen: HDAC9; type: biochemical; conditions: for IC50: Table 2
HDAC10 = molecular target: T2, HDAC10 (Homo sapiens, UniProt Q969S8); assay: In vitro HDAC isozyme selectivity screen: HDAC10; type: biochemical; conditions: Table 2
T2 sequence (Q969S8 1-669): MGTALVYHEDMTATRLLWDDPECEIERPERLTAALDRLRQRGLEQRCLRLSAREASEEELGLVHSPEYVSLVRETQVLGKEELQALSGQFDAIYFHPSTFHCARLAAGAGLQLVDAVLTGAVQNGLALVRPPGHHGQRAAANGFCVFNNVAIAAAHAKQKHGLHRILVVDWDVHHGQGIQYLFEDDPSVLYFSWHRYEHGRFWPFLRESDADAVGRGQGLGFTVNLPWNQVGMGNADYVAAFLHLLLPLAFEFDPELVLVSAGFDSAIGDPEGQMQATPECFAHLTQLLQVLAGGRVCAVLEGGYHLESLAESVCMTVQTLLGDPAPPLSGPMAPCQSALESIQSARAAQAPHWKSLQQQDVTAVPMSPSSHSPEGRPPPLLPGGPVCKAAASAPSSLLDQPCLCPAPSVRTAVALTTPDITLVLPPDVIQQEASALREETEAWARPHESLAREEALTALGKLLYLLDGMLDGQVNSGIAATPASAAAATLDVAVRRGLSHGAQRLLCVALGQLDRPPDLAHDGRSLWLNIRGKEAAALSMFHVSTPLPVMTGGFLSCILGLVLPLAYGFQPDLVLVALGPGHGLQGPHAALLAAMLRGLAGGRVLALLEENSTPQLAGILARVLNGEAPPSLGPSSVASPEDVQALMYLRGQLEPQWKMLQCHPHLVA

HDAC11 = molecular target: T3, HDAC11 (Homo sapiens, UniProt Q96DB2); assay: In vitro HDAC isozyme selectivity screen: HDAC11; type: biochemical; conditions: Table 2
T3 sequence (Q96DB2 1-347): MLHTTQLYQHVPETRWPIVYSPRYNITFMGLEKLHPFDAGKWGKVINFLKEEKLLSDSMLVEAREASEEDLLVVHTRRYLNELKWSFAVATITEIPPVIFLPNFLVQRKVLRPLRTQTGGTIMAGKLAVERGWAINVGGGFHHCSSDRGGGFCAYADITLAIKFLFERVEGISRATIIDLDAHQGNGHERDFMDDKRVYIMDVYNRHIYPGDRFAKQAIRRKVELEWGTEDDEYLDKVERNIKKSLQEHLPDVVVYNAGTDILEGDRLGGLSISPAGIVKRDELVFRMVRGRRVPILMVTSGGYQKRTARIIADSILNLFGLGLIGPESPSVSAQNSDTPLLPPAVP

[1] = test system: acetylation of α-tubulin in Neuro-2a cells; assay: Acetylation level of α-tubulin in Neuro-2a cells (Western blot); type: cell-based, Mouse; conditions: for normalized ratio Acetyl α-Tubulin/α-Tubulin against Tubastatin A, Average: Average of N = 1 to 4; for effect on the acetylation level of α-tubulin compared with Tubastatin A: Neuro-2a cells, in words
Method: FIG. 1: Potency of inhibiting HDAC6 by compounds 7a, 7b and 13a in Neuro-2a cells. A. Cells were treated overnight with different concentrations of the HDAC6 inhibitors and blotted of the acetylation of α-tubulin.
Mouse neuroblastoma (Neuro-2a) cells were grown in a 1:1 mix of D-MEM (Dulbecco's Modified Eagle Medium) and F12 medium supplemented with glutamax (Invitrogen), 100 μg/ml streptomycin, 100 U/ml penicillin (Invitrogen), 10% fetal calf serum (Greiner Bio-one), 1% non-essential amino acids (Invitrogen) and 1.6% NaHCO3 (Invitrogen) at 37° C. and 7.5% CO2. To split the cells, cells were washed with Versene (Invitrogen) and dissociated with 0.05% Trypsine-EDTA (Invitrogen).
For sodium dodecyl sulfate-polyacrylamide gel electrophoresis (SDS-PAGE) analysis, transfected cells were collected using the EpiQuik Total Histone Extraction Kit (EpiGentek) according to manufacturer's instructions. Protein concentrations were determined using microBCA kit (Thermo Fisher Scientific Inc., Pittsburgh, Pa., USA) according to manufacturer's instructions. Before resolving the samples on a 12% SDS-PAGE gel, samples containing equal amounts of protein were supplemented with reducing sample buffer (Thermo Scientific) and boiled at 95° C. for 5 min. After electrophoresis, the proteins were transferred to a polyvinylidene difluoride (PVDF) membrane (Millipore Corp., Bedford, Mass., USA). The non-specific binding was blocked by incubation of the membrane in 5% bovine serum albumin (BSA), diluted in Tris Buffered Saline Tween (TBST, 50 mM TRIS, 150 mM NaCl, 0.1% Tween-20 (Applichem, Darmstadt, Duitsland) for 1 h at room temperature followed by incubation with primary antibodies overnight. The antibodies, diluted in TBS-T, were directed against α-tubulin (1/5000, T6199, Sigma-Aldrich), and acetylated α-tubulin (1/5000, T6793 monoclonal, Sigma-Aldrich). The secondary antibodies, coupled to alkaline phosphatase (anti-mouse or anti-rabbit, 1/5000, Sigma-Aldrich) were used. Blots were visualised by adding the ECF substrate (Enhanced Chemical Fluorescence, GE Healthcare, Uppsala, Sweden) and imaged with the ImageQuant_LAS 4000. A mild reblotting buffer (Millipore) was applied to strip the blots. ImageQuant TL version 7.0-software was used to quantify the blots.
Neuro-2a cells were treated overnight with different concentrations of the HDAC6 inhibitors and the effect on the acetylation level of α-tubulin was determined using Western blots (FIG. 1).

Sequence of HDAC4 (P56524 whole entry, species assumed): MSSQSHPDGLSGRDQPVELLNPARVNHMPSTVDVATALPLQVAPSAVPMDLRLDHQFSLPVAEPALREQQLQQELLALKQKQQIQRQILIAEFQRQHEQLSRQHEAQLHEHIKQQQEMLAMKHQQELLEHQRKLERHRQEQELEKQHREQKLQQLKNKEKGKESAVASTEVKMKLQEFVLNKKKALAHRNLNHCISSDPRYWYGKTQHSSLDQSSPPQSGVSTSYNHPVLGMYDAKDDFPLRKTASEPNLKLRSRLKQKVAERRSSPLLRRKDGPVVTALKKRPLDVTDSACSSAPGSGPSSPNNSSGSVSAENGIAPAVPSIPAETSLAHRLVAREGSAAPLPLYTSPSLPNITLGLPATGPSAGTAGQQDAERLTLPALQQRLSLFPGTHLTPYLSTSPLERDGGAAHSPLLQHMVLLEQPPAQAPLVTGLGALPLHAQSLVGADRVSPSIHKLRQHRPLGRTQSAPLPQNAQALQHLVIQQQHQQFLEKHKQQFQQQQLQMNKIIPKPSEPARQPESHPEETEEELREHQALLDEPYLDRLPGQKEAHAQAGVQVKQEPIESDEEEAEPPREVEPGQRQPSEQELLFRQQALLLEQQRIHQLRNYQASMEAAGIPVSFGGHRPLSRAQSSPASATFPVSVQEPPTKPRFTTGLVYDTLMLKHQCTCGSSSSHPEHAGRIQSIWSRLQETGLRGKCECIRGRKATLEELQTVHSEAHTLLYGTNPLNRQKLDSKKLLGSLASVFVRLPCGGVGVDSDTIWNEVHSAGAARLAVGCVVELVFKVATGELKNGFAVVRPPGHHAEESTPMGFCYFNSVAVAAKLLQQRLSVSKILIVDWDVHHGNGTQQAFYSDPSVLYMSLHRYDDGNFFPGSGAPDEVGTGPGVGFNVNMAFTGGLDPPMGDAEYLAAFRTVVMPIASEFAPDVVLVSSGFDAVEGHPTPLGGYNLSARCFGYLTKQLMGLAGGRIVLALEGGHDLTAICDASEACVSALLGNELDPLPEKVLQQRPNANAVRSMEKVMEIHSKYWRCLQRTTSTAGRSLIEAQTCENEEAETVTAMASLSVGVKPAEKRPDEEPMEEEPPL
Sequence of HDAC5 (Q9UQL6 whole entry, species assumed): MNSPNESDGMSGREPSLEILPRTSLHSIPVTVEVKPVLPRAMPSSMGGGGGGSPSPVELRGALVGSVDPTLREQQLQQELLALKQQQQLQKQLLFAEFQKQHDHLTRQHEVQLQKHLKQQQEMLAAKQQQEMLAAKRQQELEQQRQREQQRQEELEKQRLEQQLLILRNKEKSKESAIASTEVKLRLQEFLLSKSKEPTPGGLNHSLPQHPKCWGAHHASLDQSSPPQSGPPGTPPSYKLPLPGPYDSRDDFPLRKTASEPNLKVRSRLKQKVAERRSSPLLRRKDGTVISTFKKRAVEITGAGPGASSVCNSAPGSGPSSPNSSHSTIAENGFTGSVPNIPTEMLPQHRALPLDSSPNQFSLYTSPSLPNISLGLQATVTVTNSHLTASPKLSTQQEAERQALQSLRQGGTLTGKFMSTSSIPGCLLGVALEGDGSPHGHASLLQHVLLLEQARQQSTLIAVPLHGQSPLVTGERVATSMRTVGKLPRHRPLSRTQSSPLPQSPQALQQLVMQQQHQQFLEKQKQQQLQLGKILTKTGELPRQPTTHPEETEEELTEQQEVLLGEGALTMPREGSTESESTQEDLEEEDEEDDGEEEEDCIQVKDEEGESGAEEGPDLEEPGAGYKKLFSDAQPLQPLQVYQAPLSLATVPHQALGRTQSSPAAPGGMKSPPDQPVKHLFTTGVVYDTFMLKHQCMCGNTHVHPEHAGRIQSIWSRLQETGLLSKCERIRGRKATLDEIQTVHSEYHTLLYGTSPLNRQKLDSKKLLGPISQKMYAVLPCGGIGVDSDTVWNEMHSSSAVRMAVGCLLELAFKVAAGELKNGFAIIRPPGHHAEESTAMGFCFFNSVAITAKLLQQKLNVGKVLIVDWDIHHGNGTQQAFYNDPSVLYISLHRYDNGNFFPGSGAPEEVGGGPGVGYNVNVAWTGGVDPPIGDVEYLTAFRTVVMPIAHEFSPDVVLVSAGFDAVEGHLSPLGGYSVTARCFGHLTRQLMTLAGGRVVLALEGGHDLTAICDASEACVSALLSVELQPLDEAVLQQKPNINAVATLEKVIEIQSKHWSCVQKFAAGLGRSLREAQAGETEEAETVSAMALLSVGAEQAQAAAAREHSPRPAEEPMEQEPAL
Sequence of HDAC2 (Q92769 whole entry, species assumed): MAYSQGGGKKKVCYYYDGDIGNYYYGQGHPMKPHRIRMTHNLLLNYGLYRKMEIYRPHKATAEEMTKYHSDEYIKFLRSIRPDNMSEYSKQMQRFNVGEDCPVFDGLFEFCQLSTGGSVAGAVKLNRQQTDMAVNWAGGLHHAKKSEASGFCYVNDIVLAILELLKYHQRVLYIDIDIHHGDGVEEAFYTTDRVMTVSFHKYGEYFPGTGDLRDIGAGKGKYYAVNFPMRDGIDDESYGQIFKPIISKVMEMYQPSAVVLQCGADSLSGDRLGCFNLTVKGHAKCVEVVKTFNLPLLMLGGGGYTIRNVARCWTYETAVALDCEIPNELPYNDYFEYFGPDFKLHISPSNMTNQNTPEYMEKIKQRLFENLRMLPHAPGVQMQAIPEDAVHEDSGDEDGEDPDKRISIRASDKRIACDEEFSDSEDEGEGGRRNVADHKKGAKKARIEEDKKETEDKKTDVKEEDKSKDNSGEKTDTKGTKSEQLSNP
Sequence of HDAC1 (Q13547 whole entry, species assumed): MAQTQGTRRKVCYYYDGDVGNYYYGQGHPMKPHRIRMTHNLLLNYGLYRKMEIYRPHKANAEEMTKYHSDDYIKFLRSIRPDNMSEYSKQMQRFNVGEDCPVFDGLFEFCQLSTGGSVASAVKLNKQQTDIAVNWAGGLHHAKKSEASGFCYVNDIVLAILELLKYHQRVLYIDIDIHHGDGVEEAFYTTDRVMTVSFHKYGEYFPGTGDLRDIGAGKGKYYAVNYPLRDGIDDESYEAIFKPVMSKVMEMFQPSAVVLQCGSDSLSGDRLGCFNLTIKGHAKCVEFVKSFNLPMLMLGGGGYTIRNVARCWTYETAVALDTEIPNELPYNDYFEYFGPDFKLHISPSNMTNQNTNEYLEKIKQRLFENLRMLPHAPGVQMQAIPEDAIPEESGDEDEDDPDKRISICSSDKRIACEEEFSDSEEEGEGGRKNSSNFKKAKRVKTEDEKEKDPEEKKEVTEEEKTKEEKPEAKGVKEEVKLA
Sequence of HDAC9 (Q9UKV0 whole entry, species assumed): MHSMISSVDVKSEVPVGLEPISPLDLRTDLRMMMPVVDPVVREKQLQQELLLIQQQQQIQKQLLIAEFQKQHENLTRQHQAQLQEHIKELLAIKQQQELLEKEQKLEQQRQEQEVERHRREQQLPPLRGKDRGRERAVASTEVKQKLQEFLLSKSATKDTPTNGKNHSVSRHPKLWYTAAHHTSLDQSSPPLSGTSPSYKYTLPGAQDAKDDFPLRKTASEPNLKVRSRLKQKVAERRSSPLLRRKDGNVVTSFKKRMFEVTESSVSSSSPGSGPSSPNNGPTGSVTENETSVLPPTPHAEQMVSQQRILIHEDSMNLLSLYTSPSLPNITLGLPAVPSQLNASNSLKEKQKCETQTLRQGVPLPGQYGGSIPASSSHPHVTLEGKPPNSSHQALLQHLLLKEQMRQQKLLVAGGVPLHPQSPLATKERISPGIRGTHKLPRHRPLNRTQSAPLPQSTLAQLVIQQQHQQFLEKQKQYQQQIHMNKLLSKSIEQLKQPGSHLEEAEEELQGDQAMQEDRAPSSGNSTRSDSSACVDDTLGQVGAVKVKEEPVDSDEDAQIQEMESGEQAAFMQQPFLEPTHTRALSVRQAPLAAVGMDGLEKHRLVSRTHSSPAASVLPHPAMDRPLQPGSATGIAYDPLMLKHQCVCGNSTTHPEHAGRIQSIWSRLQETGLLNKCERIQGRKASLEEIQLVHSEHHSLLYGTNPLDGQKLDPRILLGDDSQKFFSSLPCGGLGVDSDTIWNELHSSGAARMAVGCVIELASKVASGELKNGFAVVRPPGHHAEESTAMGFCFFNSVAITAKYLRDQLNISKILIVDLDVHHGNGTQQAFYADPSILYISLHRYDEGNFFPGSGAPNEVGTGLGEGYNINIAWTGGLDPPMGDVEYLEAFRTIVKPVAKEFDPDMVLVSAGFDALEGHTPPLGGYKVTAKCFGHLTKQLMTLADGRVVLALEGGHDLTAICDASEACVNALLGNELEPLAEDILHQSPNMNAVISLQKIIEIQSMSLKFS

| IC50 (HDAC2) [µM] | IC50 (HDAC4) [µM] | IC50 (HDAC5) [µM] | IC50 (HDAC8) [µM] | IC50 (HDAC9) [µM] | IC50 (HDAC10) [µM] | IC50 (HDAC11) [µM] | SMILES | normalized ratio Acetyl α-Tubulin/α-Tubulin against Tubastatin A, Average ([1]; 10 nM, overnight, Neuro-2a) | normalized ratio Acetyl α-Tubulin/α-Tubulin against Tubastatin A, Average ([1]; 50 nM, overnight, Neuro-2a) | normalized ratio Acetyl α-Tubulin/α-Tubulin against Tubastatin A, Average ([1]; 100 nM, overnight, Neuro-2a) | normalized ratio Acetyl α-Tubulin/α-Tubulin against Tubastatin A, Average ([1]; 500 nM, overnight, Neuro-2a) | normalized ratio Acetyl α-Tubulin/α-Tubulin against Tubastatin A, Average ([1]; 1 μM, overnight, Neuro-2a) | effect on the acetylation level of α-tubulin compared with Tubastatin A [1] | IC50 (HDAC1) [µM] | other results |
| --- | --- | --- | --- | --- | --- | --- | --- | --- | --- | --- | --- | --- | --- | --- | --- |
| > 100 | > 100 | > 100 | 2.1 | > 100 | 33 | 15 | O=C(NO)c1ccc(NCc2csc3ccc(Br)cc23)cc1 [Compound 7b, 5-bromo-3-[(4-hydroxycarbamoylphenyl)aminomethyl]-benzothiophene] | 8.35 | 15.75 | 27.24 | 63.70 | 83.19 | same effect on the acetylation level of α-tubulin as Tubastatin A | – | effect at 100 μM, HDAC1 (HDAC1; 100 μM): less than 50%; effect at 100 μM, HDAC2 (HDAC2; 100 μM): less than 50%; effect at 100 μM, HDAC4 (HDAC4; 100 μM): less than 50%; effect at 100 μM, HDAC5 (HDAC5; 100 μM): less than 50%; selectivity for HDAC6 over HDAC8 (HDAC8; HDAC8 vs HDAC6 IC50): 57 fold; effect at 100 μM, HDAC9 (HDAC9; 100 μM): less than 50%; normalized ratio Acetyl α-Tubulin/α-Tubulin against Tubastatin A ([1]; 1 μM, overnight, Neuro-2a, single experiments N = 1 to 4, Tub A 1 μM = 100): 99.53 and 83.22 and 69.97 and 80.03 |
| 20 | 31 | 45 | 1.9 | 25 | 7.6 | 1.2 | O=C(NO)c1ccc(NCc2csc3cc(Br)ccc23)cc1 [Compound 13a, 6-bromo-3-[(4-hydroxycarbamoylphenyl)aminomethyl]-benzothiophene] | 8.35 | 13.93 | 23.21 | 69.97 | 80.44 | – | 3.4 | – |

| SMILES | IC50 (HDAC2) [µM] | IC50 (HDAC4) [µM] | IC50 (HDAC5) [µM] | IC50 (HDAC8) [µM] | IC50 (HDAC9) [µM] | IC50 (HDAC10) [µM] | IC50 (HDAC11) [µM] | normalized ratio Acetyl α-Tubulin/α-Tubulin against Tubastatin A, Average ([1]; 10 nM, overnight, Neuro-2a) | normalized ratio Acetyl α-Tubulin/α-Tubulin against Tubastatin A, Average ([1]; 50 nM, overnight, Neuro-2a) | normalized ratio Acetyl α-Tubulin/α-Tubulin against Tubastatin A, Average ([1]; 100 nM, overnight, Neuro-2a) | normalized ratio Acetyl α-Tubulin/α-Tubulin against Tubastatin A, Average ([1]; 500 nM, overnight, Neuro-2a) | normalized ratio Acetyl α-Tubulin/α-Tubulin against Tubastatin A, Average ([1]; 1 μM, overnight, Neuro-2a) | effect on the acetylation level of α-tubulin compared with Tubastatin A [1] | IC50 (HDAC1) [µM] | other results |
| --- | --- | --- | --- | --- | --- | --- | --- | --- | --- | --- | --- | --- | --- | --- | --- |
| O=C(NO)c1ccc(NCc2csc3ccccc23)cc1 [Compound 7a, 3-[(4-hydroxycarbamoylphenyl)aminomethyl]benzothiophene] | 30 | 10 | 17 | 1.4 | 7.1 | 9.9 | 31 | 24.02 | 46.70 | 67.40 | 139.23 | 90.45 | same effect on the acetylation level of α-tubulin as Tubastatin A | 7.5 | – |

Source: patent US9993459B2, “Selective HDAC6 inhibitors and uses thereof” (Universiteit Gent, priority 2015, dated 2018)
